From patent US20200297746A1, “COMPOSITION FOR REDUCING WEIGHT AND LOWERING LIPID, PREPARATION METHOD THEREFOR AND USE THEREOF” (CATCH BIO-SCIENCE & TECHNOLOGY CO., LTD., priority 2017, published 2020)

Tests used:
[1] = tested on: obesity model rats fed with the high-fat feed; experiment: Weight reducing effect in rats fed high-fat feed, 7 weeks of administration via lavage; type: in vivo, male Spague-Dawlay (SD) Rats; settings: high-fat feed SD rats, 80 mg/kg via lavage once daily for 7 weeks, x ± s, n = 10
Description: The feed is commercially available. The high-fat feed comprises 75% base feed, 2% cholesterol, 0.5% sodium cholate, 15% lard, and 7.5% egg yolk. 150 male Spague-Dawlay (SD) Rats of clean grade, each aged 4 weeks and weighed 150-180 g, are provided by Shanghai Lingchang Biotechnology Co., Ltd. The rats are fed in separate plastic cages, given free access to water and feed for 7 days to adapt to the environment, and then quarantined. 140 rats of similar weight are selected from the 150 rats, randomly divided into 14 groups, with 10 rats in each group, including experimental groups 1-8, comparative experiment groups 1-4, a model control group and a blank control group. Rats in the blank control group are fed with the base feed, and rats in other groups are fed with the high-fat feed. Rats in the experimental groups 1-8 are respectively administered via lavage with 80 mg/kg of the pharmaceutical compositions prepared in Examples 1-8; rats in the comparative experiment groups 1-4 are respectively administered via lavage with 80 mg/kg of phloridzin, 80 mg/kg of the extract from Curcuma longa L., 80 mg/kg of epigallocatechin gallate and 80 mg/kg of the extract from […] folium; and rats in the model control group and the blank control group are administered via lavage with equivalent amounts of saline. Rats in each group receive administration once daily for 7 continuous weeks. (1) After 7 weeks of administration, the weight and weight gain of rats in each group are observed and recorded; (2) Rats are anesthetized with ether, and fat pads surrounding the genitalia and kidney and the fat of the omentum are separated and weighed. A fat-to-weight ratio is calculated according to the following equation: fat-to-weight ratio (%)=(weight of fat surrounding the genitalia+weight of fat surrounding kidney+weight of fat of the omentum)/body weight×100%; Data processing is performed using SPSS 20.0 software. Differences between the groups are analyzed using a single-factor variance analysis.

[2] = tested on: hyperlipemia model rats fed with the high-fat feed; experiment: Blood lipid lowering effect in rats fed high-fat feed, serum biochemical parameters by enzymatic method; type: in vivo, male Spague-Dawlay (SD) Rats; settings: high-fat feed SD rats, 80 mg/kg via lavage once daily for 7 weeks, x ± s, n = 10
Description: The feed is commercially available. The high-fat feed comprises 75% base feed, 2% cholesterol, 0.5% sodium cholate, 15% lard, and 7.5% egg yolk. 150 male Spague-Dawlay (SD) Rats of clean grade, each aged 4 weeks and weighed 150-180 g, are provided by Shanghai Lingchang Biotechnology Co., Ltd. The rats are fed in separate plastic cages, given free access to water and feed for 7 days to adapt to the environment, and then quarantined.
140 rats of similar weight are selected from the 150 rats, randomly divided into 14 groups, with 10 rats in each group, including experimental groups 1-8, comparative experiment groups 1-4, a model control group and a blank control group. Rats in the blank control group are fed with the base feed, and rats in other groups are fed with the high-fat feed.
Rats in the experimental groups 1-8 are respectively administered via lavage with 80 mg/kg of the pharmaceutical compositions prepared in Examples 1-8; rats in the comparative experiment groups 1-4 are respectively administered via lavage with 80 mg/kg of phloridzin, 80 mg/kg of the extract from Curcuma longa L., 80 mg/kg of epigallocatechin gallate and 80 mg/kg of the extract from sennae folium; and rats in the model control group and the blank control group are administered via lavage with equivalent amounts of saline.
Rats in each group receive administration once daily for 7 continuous weeks.
(3) After 7 weeks of administration, blood are collected from orbital posterior venous plexus of the rats and analyzed with an enzymatic method on a full-automatic biochemical analyzer to quantitatively determine levels of triglycerides (TG), total cholesterol (TC), high density lipoprotein cholesterol (HDL-C), and low density lipoprotein cholesterol (LDL-C) in serum.
Data processing is performed using SPSS 20.0 software. Differences between the groups are analyzed using a single-factor variance analysis.

For `O=C(CCc1ccc(O)cc1)c1c(O)cc(O)cc1O[C@@H]1O[C@H](CO)[C@@H](O)[C@H](O)[C@H]1O` [Comparative experiment Group 1, phloridzin], which Body weight gain [1] is on record?
The Body weight gain was 161.35 ± 20.01 g.

And the Fat-to-weight ratio [1]?
Its Fat-to-weight ratio is 5.87 ± 0.72 %.

What about the HDL-C [2] of the same molecule?
The HDL-C was 0.72 ± 0.10 mmol/L.

And the LDL-C [2]?
Its LDL-C is 0.49 ± 0.10 mmol/L.

What about the TC [2] of the same molecule?
Its TC is 2.21 ± 0.51 mmol/L.

And the TG [2]?
Its TG is 1.56 ± 0.39 mmol/L.

What does the source list for `O=C(O[C@@H]1Cc2c(O)cc(O)cc2O[C@@H]1c1cc(O)c(O)c(O)c1)c1cc(O)c(O)c(O)c1` [Comparative experiment Group 3, epigallocatechin gallate]?
Body weight gain [1]: 189.76 ± 22.25 g; Fat-to-weight ratio [1]: 7.48 ± 0.53%; HDL-C [2]: 0.59 ± 0.12 mmol/L; LDL-C [2]: 0.55 ± 0.12 mmol/L; TC [2]: 2.55 ± 0.43 mmol/L; TG [2]: 1.77 ± 0.41 mmol/L
